Laboratory results as given in publication PMC11944670, “Reshaping [^99mTc]Tc-DT11 to DT14D Tagged with Trivalent Radiometals for NTS1R-Positive Cancer Theranostics” (Pharmaceutics, 2025).
Residues, ends and D or L forms follow the SMILES beside them. *: point of attachment. DOTA = O=C(O)CN1CCN(CC(=O)O)CCN(CC(=O)*)CCN(CC(=O)O)CC1; X1 = Cc1ccc(CCCC(=O)NCCOCCOCCOCCOCC(=O)*)cc1; βAla = NCCC(=O)O

How the values were obtained:
in vivo = assay: in vivo; parameters: species or system mice; settings: male, SCID, mouse, iv, total radioactivity
Method: (§1) The distribution of [^67Ga]Ga/[^111In]In/[^177Lu]Lu-DT14D was investigated in male severe combined immunodeficiency (SCID) mice (49 mice in total, 6 weeks of age on arrival date, 22 ± 4 g, NCSR “Demokritos” Animal House, Athens, Greece) bearing NTS1R-positive AsPC-1 xenografts in their flanks. For xenograft induction, suspensions of freshly harvested AsPC-1 cells (5 × 10^6 cells in 150 µL sterile PBS) were subcutaneously injected into the mice’s flanks. The animals were kept under aseptic conditions and 4 weeks later developed well palpable masses at the inoculation sites (100 ± 50 mg) and biodistribution was conducted. On the day of the experiment, the animals received a bolus (100 μL, in vehicle: saline/EtOH 9/1 v/v) containing the radioligand via the tail vein. The following groups of four animals per time point, per treatment, were included per radioligand (the 4 h block groups comprised 3 animals instead) including the respective (radio)ligand amounts injected: i. 78–91 kBq [^67Ga]Ga-DT14D corresponding to 7–17 pmol DT14D at 1 and 4 h pi plus 4 h block (coinjection with 100 µg NT); ii. 74–92 kBq [^111In]In-DT14D corresponding to 20–25 pmol at 4 h (controls), 4 h pi (Entresto®; animals receiving a slurry of 12 mg/200 µL Entresto® oral gavage 30 min in advance) and 4 h block (coinjection with 100 µg NT); 24 h pi (including both controls and Entresto® mice groups); and iii. 730 kBq [^177Lu]Lu-DT14D corresponding to 40 pmol DT14D at 4, 24, 48, and 72 h pi plus 4 h block (co-injection with 100 µg NT). The animals were euthanized at predetermined time intervals, dissected and blood samples, organs of interest, and tumors were collected, weighed, and counted in the gamma counter. Biodistribution data were calculated as percent of the injected activity per gram tissue (%IA/g) with the aid of suitable standards of the administered activity. Results as the mean %IA/g values ± sd were obtained and statistical analysis was performed with PRISM^TM GraphPad—10.2 Software (San Diego, CA/USA), applying 2-way ANOVA with Tukey’s post hoc analysis, or, in the case of two variables, Šídák’s multiple comparisons test was adopted; differences with p < 0.05 were considered as statistically significant.

[1] = test system: NTS1R-positive AsPC-1 xenografts; assay: in vivo; parameters: species or system mice; settings: male, SCID, mouse, iv
Method: as §1

CC[C@H](C)[C@H](NC(=O)[C@H](Cc1ccc(O)cc1)NC(=O)[C@@H]1CCCN1C(=O)[C@H](CCCNC(=N)N)NC(=O)[C@H](CCCNC(=N)N)NC(=O)[C@H](CCCCNC(=O)COCCOCCOCCOCCNC(=O)CCCc1ccc(C)cc1)NC(=O)CCNC(=O)CCNC(=O)CCNC(=O)CN1CCN(CC(=O)O)CCN(CC(=O)O)CCN(CC(=O)O)CC1)C(=O)N[C@@H](CC(C)C)C(=O)O [[^67Ga]Ga-DT14D, metal not drawn] ({DOTA-βAla-βAla-βAla}-K(X1)RRPYIL-OH)
tissue uptake at 1 h (in vivo; Biodistribution, AsPC-1 Tumor): 11.4 ± 1.25 %ID/g | tissue uptake at 1 h (in vivo; Biodistribution, Blood): 9.52 ± 0.76 %ID/g | tissue uptake at 1 h (in vivo; Biodistribution, Femur): 2.24 ± 0.23 %ID/g | tissue uptake at 1 h (in vivo; Biodistribution, Heart): 2.86 ± 0.16 %ID/g | tissue uptake at 1 h (in vivo; Biodistribution, Intestines): 2.81 ± 0.53 %ID/g | tissue uptake at 1 h (in vivo; Biodistribution, Kidneys): 7.1 ± 1.12 %ID/g | tissue uptake at 1 h (in vivo; Biodistribution, Liver): 3.74 ± 0.37 %ID/g | tissue uptake at 1 h (in vivo; Biodistribution, Lungs): 4.31 ± 0.28 %ID/g | tissue uptake at 1 h (in vivo; Biodistribution, Muscle): 1.14 ± 0.15 %ID/g | tissue uptake at 1 h (in vivo; Biodistribution, Pancreas): 1.41 ± 0.12 %ID/g | tissue uptake at 1 h (in vivo; Biodistribution, Spleen): 2.86 ± 0.33 %ID/g | tissue uptake at 1 h (in vivo; Biodistribution, Stomach): 0.97 ± 0.27 %ID/g | tissue uptake at 4 h (in vivo; Biodistribution, Stomach): 0.45 ± 0.08 %ID/g | tissue to tissue ratio at 1 h (in vivo; Tumor/Blood ratio): 1.2 ± 0.06 | tissue to tissue ratio at 1 h (in vivo; Tumor/Heart ratio): 3.99 ± 0.24 | tissue to tissue ratio at 1 h (in vivo; Tumor/Intestines ratio): 4.12 ± 0.52 | tissue to tissue ratio at 1 h (in vivo; Tumor/Kidneys ratio): 1.62 ± 0.13 | tissue to tissue ratio at 4 h (in vivo; Tumor/Kidneys ratio): 1.15 ± 0.12 | tissue to tissue ratio at 1 h (in vivo; Tumor/Liver ratio): 3.05 ± 0.19 | tissue to tissue ratio at 1 h (in vivo; Tumor/Lungs ratio): 2.64 ± 0.15 | tissue to tissue ratio at 4 h (in vivo; Tumor/Lungs ratio): 3.28 ± 0.21 | tissue to tissue ratio at 1 h (in vivo; Tumor/Muscle ratio): 10.1 ± 1.09 | tissue to tissue ratio at 1 h (in vivo; Tumor/Pancreas ratio): 8.09 ± 0.24 | tissue to tissue ratio at 1 h (in vivo; Tumor/Spleen ratio): 4 ± 0.08 | tissue to tissue ratio at 1 h (in vivo; Tumor/Stomach ratio): 12.2 ± 2.71 | tissue to tissue ratio at 4 h (in vivo; Tumor/Stomach ratio): 9.96 ± 1.68

CC[C@H](C)[C@H](NC(=O)[C@H](Cc1ccc(O)cc1)NC(=O)[C@@H]1CCCN1C(=O)[C@H](CCCNC(=N)N)NC(=O)[C@H](CCCNC(=N)N)NC(=O)[C@H](CCCCNC(=O)COCCOCCOCCOCCNC(=O)CCCc1ccc(C)cc1)NC(=O)CCNC(=O)CCNC(=O)CCNC(=O)CN1CCN(CC(=O)O)CCN(CC(=O)O)CCN(CC(=O)O)CC1)C(=O)N[C@@H](CC(C)C)C(=O)O [[^67Ga]Ga-DT14D] [metal not drawn] ({DOTA-βAla-βAla-βAla}-K(X1)RRPYIL-OH)
Biodistribution, Blood ([1]; 4 h): 2.15 ± 0.40 %IA/g | Biodistribution, Femur ([1]; 4 h): 1.67 ± 0.36 %IA/g | Biodistribution, Heart ([1]; 4 h): 0.76 ± 0.12 %IA/g | Biodistribution, Intestines ([1]; 4 h): 2.32 ± 0.39 %IA/g | Biodistribution, Kidneys ([1]; 4 h): 3.87 ± 0.96 %IA/g | Biodistribution, Liver ([1]; 4 h): 3.44 ± 0.15 %IA/g | Biodistribution, Lungs ([1]; 4 h): 1.34 ± 0.20 %IA/g | Biodistribution, Muscle ([1]; 4 h): 0.27 ± 0.04 %IA/g | Biodistribution, Pancreas ([1]; 4 h): 0.51 ± 0.08 %IA/g | Biodistribution, Spleen ([1]; 4 h): 1.75 ± 0.67 %IA/g | Tumor/Blood ratio ([1]; 4 h): 2.06 ± 0.21 | Tumor/Heart ratio ([1]; 4 h): 5.75 ± 0.17 | Tumor/Intestines ratio ([1]; 4 h): 1.89 ± 0.06 | Tumor/Liver ratio ([1]; 4 h): 1.28 ± 0.24 | Tumor/Muscle ratio ([1]; 4 h): 16.50 ± 2.36 | Tumor/Pancreas ratio ([1]; 4 h): 8.69 ± 0.52 | Tumor/Spleen ratio ([1]; 4 h): 2.50 ± 0.23

CC[C@H](C)[C@H](NC(=O)[C@H](Cc1ccc(O)cc1)NC(=O)[C@@H]1CCCN1C(=O)[C@H](CCCNC(=N)N)NC(=O)[C@H](CCCNC(=N)N)NC(=O)[C@H](CCCCNC(=O)COCCOCCOCCOCCNC(=O)CCCc1ccc(C)cc1)NC(=O)CCNC(=O)CCNC(=O)CCNC(=O)CN1CCN(CC(=O)O)CCN(CC(=O)O)CCN(CC(=O)O)CC1)C(=O)N[C@@H](CC(C)C)C(=O)O [[^111In]In-DT14D, metal not drawn] ({DOTA-βAla-βAla-βAla}-K(X1)RRPYIL-OH)
tissue uptake at 24 h (in vivo; Biodistribution, AsPC-1 Tumor): 2.82 ± 0.68 %ID/g | tissue uptake at 24 h (in vivo; Biodistribution, Kidneys): 1.7 ± 0.13 %ID/g | tissue to tissue ratio at 24 h (in vivo; Tumor/Intestines ratio): 4.07 ± 0.42 | tissue to tissue ratio at 24 h (in vivo; Tumor/Kidneys ratio): 1.66 ± 0.4 | tissue to tissue ratio at 24 h (in vivo; Tumor/Spleen ratio): 1.77 ± 0.32

CC[C@H](C)[C@H](NC(=O)[C@H](Cc1ccc(O)cc1)NC(=O)[C@@H]1CCCN1C(=O)[C@H](CCCNC(=N)N)NC(=O)[C@H](CCCNC(=N)N)NC(=O)[C@H](CCCCNC(=O)COCCOCCOCCOCCNC(=O)CCCc1ccc(C)cc1)NC(=O)CCNC(=O)CCNC(=O)CCNC(=O)CN1CCN(CC(=O)O)CCN(CC(=O)O)CCN(CC(=O)O)CC1)C(=O)N[C@@H](CC(C)C)C(=O)O [[^177Lu]Lu-DT14D] [metal not drawn] ({DOTA-βAla-βAla-βAla}-K(X1)RRPYIL-OH)
Biodistribution, Blood ([1]; 4 h): 0.72 ± 0.19 %IA/g | Biodistribution, Femur ([1]; 4 h): 0.45 ± 0.06 %IA/g | Biodistribution, Heart ([1]; 4 h): 0.32 ± 0.09 %IA/g | Biodistribution, Intestines ([1]; 4 h): 1.27 ± 0.14 %IA/g | Biodistribution, Kidneys ([1]; 4 h): 3.24 ± 0.20 %IA/g | Biodistribution, Liver ([1]; 4 h): 1.34 ± 0.14 %IA/g | Biodistribution, Lungs ([1]; 4 h): 1.63 ± 0.86 %IA/g | Biodistribution, Muscle ([1]; 4 h): 0.11 ± 0.02 %IA/g | Biodistribution, Pancreas ([1]; 4 h): 0.21 ± 0.03 %IA/g | Biodistribution, Spleen ([1]; 4 h): 1.36 ± 0.37 %IA/g | Biodistribution, Stomach ([1]; 4 h): 0.33 ± 0.12 %IA/g | Tumor/Blood ratio ([1]; 4 h): 5.51± 1.56 | Tumor/Heart ratio ([1]; 4 h): 12.36 ± 3.08 | Tumor/Intestines ratio ([1]; 4 h): 2.99 ± 0.57 | Tumor/Kidneys ratio ([1]; 4 h): 1.17 ± 0.15 | Tumor/Liver ratio ([1]; 4 h): 2.83 ± 0.45 | Tumor/Lungs ratio ([1]; 4 h): 2.97 ± 1.75 | Tumor/Muscle ratio ([1]; 4 h): 34.86 ± 6.98 | Tumor/Pancreas ratio ([1]; 4 h): 18.16 ± 3.31 | Tumor/Spleen ratio ([1]; 4 h): 2.83 ± 0.35 | Tumor/Stomach ratio ([1]; 4 h): 12.29 ± 3.81 | Biodistribution, Femur ([1]; 24 h): 0.34 ± 0.03 %IA/g | Biodistribution, Intestines ([1]; 24 h): 0.45 ± 0.03 %IA/g | Biodistribution, Liver ([1]; 24 h): 1.18 ± 0.18 %IA/g | Biodistribution, Lungs ([1]; 24 h): 0.17 ± 0.01 %IA/g | Biodistribution, Muscle ([1]; 24 h): 0.03 ± 0.00 %IA/g | Biodistribution, Spleen ([1]; 24 h): 1.06 ± 0.16 %IA/g | Tumor/Blood ratio ([1]; 24 h): 33.51 ± 2.94 | Tumor/Heart ratio ([1]; 24 h): 25.00 ± 3.78 | Tumor/Intestines ratio ([1]; 24 h): 3.95 ± 0.39 | Tumor/Kidneys ratio ([1]; 24 h): 1.46 ± 0.33 | Tumor/Liver ratio ([1]; 24 h): 1.54 ± 0.32 | Tumor/Lungs ratio ([1]; 24 h): 9.32 ± 2.56 | Tumor/Muscle ratio ([1]; 24 h): 58.07 ± 8.34 | Tumor/Pancreas ratio ([1]; 24 h): 22.31 ± 1.64 | Tumor/Spleen ratio ([1]; 24 h): 1.70 ± 0.32 | Tumor/Stomach ratio ([1]; 24 h): 31.97 ± 8.07

CC[C@H](C)[C@H](NC(=O)[C@H](Cc1ccc(O)cc1)NC(=O)[C@@H]1CCCN1C(=O)[C@H](CCCNC(=N)N)NC(=O)[C@H](CCCNC(=N)N)NC(=O)[C@H](CCCCNC(=O)COCCOCCOCCOCCNC(=O)CCCc1ccc(C)cc1)NC(=O)CCNC(=O)CCNC(=O)CCNC(=O)CN1CCN(CC(=O)O)CCN(CC(=O)O)CCN(CC(=O)O)CC1)C(=O)N[C@@H](CC(C)C)C(=O)O [[^111In]In-DT14D] [metal not drawn] ({DOTA-βAla-βAla-βAla}-K(X1)RRPYIL-OH)
Biodistribution, Blood ([1]; 4 h): 0.66 ± 0.19 %IA/g | Biodistribution, Femur ([1]; 4 h): 0.50 ± 0.06 %IA/g | Biodistribution, Heart ([1]; 4 h): 0.28 ± 0.06 %IA/g | Biodistribution, Intestines ([1]; 4 h): 1.34 ± 0.06 %IA/g | Biodistribution, Liver ([1]; 4 h): 0.45 ± 0.04 %IA/g | Biodistribution, Lungs ([1]; 4 h): 0.79 ± 0.12 %IA/g | Biodistribution, Muscle ([1]; 4 h): 0.13 ± 0.03 %IA/g | Biodistribution, Pancreas ([1]; 4 h): 0.24 ± 0.04 %IA/g | Biodistribution, Spleen ([1]; 4 h): 0.84 ± 0.07 %IA/g | Biodistribution, Stomach ([1]; 4 h): 0.39 ± 0.05 %IA/g | Biodistribution, Blood ([1]; 24 h): 0.46 ± 0.08 %IA/g | Biodistribution, Femur ([1]; 24 h): 1.35 ± 0.36 %IA/g | Biodistribution, Heart ([1]; 24 h): 0.62 ± 0.23 %IA/g | Biodistribution, Intestines ([1]; 24 h): 0.69 ± 0.09 %IA/g | Biodistribution, Liver ([1]; 24 h): 0.33 ± 0.08 %IA/g | Biodistribution, Lungs ([1]; 24 h): 0.61 ± 0.09 %IA/g | Biodistribution, Muscle ([1]; 24 h): 0.40 ± 0.10 %IA/g | Biodistribution, Pancreas ([1]; 24 h): 0.63 ± 0.39 %IA/g | Biodistribution, Spleen ([1]; 24 h): 1.59 ± 0.14 %IA/g | Biodistribution, Stomach ([1]; 24 h): 0.27 ± 0.10 %IA/g | Tumor/Intestines ratio ([1]; 24 h): 3.16 ± 0.49 | Tumor/Kidneys ratio ([1]; 24 h): 1.42 ± 0.25 | Tumor/Spleen ratio ([1]; 24 h): 1.84 ± 0.15
